# “Also recorded” adds a separate entry of the source.
# Assays:
# Schwann cells = assay: Schwann cell proliferation (BrdU incorporation, NGFR staining); assay type: cell-based, rat; conditions: for percent of Schwann cells proliferating: BrdU for six hours after 24 h; for Schwann cell proliferation, comparison in words: versus EGF-β/α
# Method: The sciatic nerve from neonatal rats was used to generate a primary culture of Schwann cells. The cells were plated overnight in 10% serum without exposure to any growth factor. The following day, EGF-β, EGF-α/βand EGF-β/α were added at the concentrations in nanograms per milliliter(ng/ml) shown in Table 2, below. Twenty four hours later, BrdU was added to each test sample for six hours. BrdU is a thymidine analog which is incorporated into the DNA of dividing cells and can be detected by standard immunochemistry procedures. This agent thus provides a means for determining expansion of the total amount of DNA in a test sample and is a measure of whether cell proliferation has occurred. Upon the completion of the test period, Schwann cells were fixed and analyzed immunohistochemically. The cells were first stained for nerve growth factor receptor (NGFR), which is a known marker for Schwann cells in culture, followed by staining for BrdU. Cell counting was carried out as follows: in a given microscope field of view, all recognizable Schwann cells were counted, then the number of cells showing positive for BrdU staining were also counted. For each test sample (or well) two or three fields were counted, amounting to about 200 to 300 Schwann cells in all. The result is expressed in Table 2 as the percent of Schwann cells proliferating.
# LIM 1215 cells = assay: Marker protein expression, ACAS confocal image cytometer; assay type: cell-based, human; design: key to Marker Protein Expression: CEA / Marker Protein Expression: Integrin β4 / Marker Protein Expression: Villin: increased expression (+); down-regulated (-); unchanged (0)
# Description: Additional confirmation of the importance of this seven amino-acid sequence was obtained by scoring for various marker proteins on the LIM 1215 cells. An ACAS confocal image cytometer was used to detect a number of markers on the cells without detaching the cells from the culture dish, as is normally done for fluorescence activated cell sorting (FACS) analysis. […] The expression of a number of other markers was unchanged (0) by treatment with EGF-β. Analogous to the previous results characterizing gross, observable morphology changes, neither EGF-α nor EGF-β/α changed the levels of these marker proteins, while EGF-α/β changed the expression of the marker proteins in a manner similar to that seen with EGF-β.
# [1] = tested on: LIM 1215 human colon epithelial cells; assay: Crystal violet proliferation assay; assay type: cell-based; conditions: three days, low serum (0.05%) media, crystal violet absorbance at 595 nm
# Description: FIG. 2. This figure is a graphical representation of the proliferative effect of the peptides of the invention on human colonic epithelial cells in vitro. These peptides are designated in the figure as EGF-β (SEQ ID NO: 2, above), represented by the closed circles, and as EGF-α/β (SEQ ID NO: 1, above), represented by the open circles. For comparison, two other peptides of equal length are included, designated as EGF-α and EGF-β/α, and represented by the closed squares and open squares, respectively. The latter two are homologs based on the EGF domain of extracellular NDF-heregulins and consist of the amino acid sequences shown further below in this text (SEQ ID NOS: 3 and 4, respectively). Proliferation is measured with a crystal violet dye which stains the cell protein and is indicative of cell number. […] The picomolar (pM) concentration of peptide used to treat the cells is shown on the horizontal axis.
# a) Crystal Violet Proliferation Assay. The human colon epithelial cell line, LIM 1215 (Whitehead, R. H. et al., J. Natl. Cancer Inst. 4:759-765, 1985) was grown in RPMI-1640 media supplemented with 5% FBS, 1 μg/ml of hydrocortisone, 1 μg/ml of bovine insulin, 10 μM of alpha thioglycerol, and 1X PSG (0.292 mg/ml of 1-glutamine, 100 units/ml of penicillin G, and 100 μg/ml of streptomycin sulfate). At the start of the assay, the cells were 30% confluent and were proliferating rapidly. Cells were released by trypsin, washed with PBS, and seeded into 96-well plates at 5000 cells/well in low serum (0.05%) media (McCoy's-5A supplemented with 4 μg/ml of transferrin, 10 μg/ml of insulin, 10 mM of selenic acid, 4 nM of triiodothyronine, and 0.03% BSA). Dilutions of test peptide were added immediately on day zero; the total volume was 100 μl. Controls included no treatment and serial dilutions of FBS. The 96-well plates were then incubated for three days at 37° C. in a 5% CO2 atmosphere. The media were removed by aspiration and 30 μl of 2% crystal violet (Difco) in methanol was added to the cells for fifteen minutes of staining. Excess dye was washed away with distilled water. To each well 100 μl of 0.04N HCL in isopropanol was added and the dye was resolubilized by mixing. Absorbance was determined at 595 nm and the values were plotted as fold-stimulation over background (or no treatment).
# b) Stimulation of colon cell proliferation. […] The chimeric peptides helped to pinpoint this determinant of activity to the seven residues corresponding to amino acids 222-228 of full length extracellular NDF/heregulin. […]
# [2] = tested on: LIM 1215 human colon epithelial cells; assay: Morphogenic activity: fluorescent actin staining (NBD phalloidin), confocal microscope; assay type: cell-based; conditions: 420 picomolar peptide, three days, serum-free media
# Method: c) Staining of LIM 1215 human colon cells with fluorescent dye. LIM 1215 cells were grown in RPMI-1640 media supplemented with 5% FBS, 1 μg/ml of bovine insulin, 10 μm of alpha thioglycerol, and 1× PSG. At the time of assay, the cells were more than 30% confluent and were proliferating rapidly. The cells were seeded into 24-well plates at 25,000 cells/well in serum-free media (McCoy's-5A, supplemented with 4 μg/ml of transferrin, 10 μg/ml of insulin, 10 mM of selenic acid, […], and 0.03% BSA). Test peptides were added at a concentration of 420 picomolar immediately on day zero; the total volume was 1.0 ml. Controls included no treatment and serial dilutions of FBS. The 24-well plates were then incubated for three days at 37° C. and 5% CO2, after which the media were removed by aspiration and the cells were washed in 1.0 ml of PBS with 0.5% BSA. All subsequent washings were performed with this buffer. The cells were then fixed in Orthopermeafix (Ortho Chemicals Co.) for thirty minutes at room temperature, and were washed twice. Then 200 μl of a 10 nM NBD phalloidin fluorescent dye solution in PBS were added and the cells were incubated in the dark (wrapped in aluminum foil) for thirty minutes at room temperature. The cells were washed twice, and inspected using a confocal microscope.
# d) Morphogenic activity of peptides on colon epithelial cells. Upon treatment of LIM 1215 cells with the EGF-β peptide, it was evident that the morphology of the cells changed dramatically. […] In the absence of treatment, the cells appeared small and rounded. […] Because the cells were proliferating rapidly in 5% FBS serum-containing media (FIG. 3), the unique morphology caused by the EGF-β peptide could not have been due solely to its ability to stimulate proliferation. Moreover, the difference in morphogenic activities between EGF-β and EGF-α must have originated in the last sixteen amino acids of the C-terminus, as this is the only difference in sequence between the two peptides.
# Further localization of morphogenic activity was obtained by use of the chimeric peptides, EGF-β/α and EGF-α/β. […] Again, the only difference in sequence between these two peptides is the last seven amino acids of the C-terminal portion.
# endoproteinase Lys-C = endoproteinase Lys-C (Lysobacter enzymogenes, UniProt Q7M135); assay: Digestion by endoproteinase Lys-C (peptide mapping); conditions: cleavage at lysine residue at position 211
# endoproteinase Lys-C, sequence (Q7M135 whole entry, the tested form may be a part): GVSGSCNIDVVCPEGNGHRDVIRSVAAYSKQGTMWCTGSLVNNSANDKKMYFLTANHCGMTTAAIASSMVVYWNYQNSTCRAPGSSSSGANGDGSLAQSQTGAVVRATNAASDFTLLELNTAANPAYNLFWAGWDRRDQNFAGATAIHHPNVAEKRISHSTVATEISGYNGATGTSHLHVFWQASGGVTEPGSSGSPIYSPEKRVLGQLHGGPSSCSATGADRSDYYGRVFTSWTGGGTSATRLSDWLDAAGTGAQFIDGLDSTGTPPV
# Description: The initial studies referred to here utilized peptides based solely on sequences of the EGF-like domain of the aforementioned α2 and β1 forms of NDF/heregulin, that is to say, that portion of the extracellular protein from amino acid residue 177 to amino acid residue 228 (see FIG. 1 herein). […] The reason for this difference was not initially apparent. However, during peptide mapping studies of the EGF-like domains of NDF/heregulins, it was discovered that the α and β forms cleaved (degraded) at different rates when subjected to digestion by endoproteinase Lys-C. […] Moreover, this phenomenon seemed limited to the lysine residue at position 211. There was no apparent difference in the rate of cleavage between α and β at any other lysine residues in the N-terminal end of the EGF-like domain.
# [3] = peptide concentration 0.1 ng/ml
# [4] = peptide concentration 100 ng/ml
Substance,percent of Schwann cells proliferating (Schwann cells; [3]),percent of Schwann cells proliferating (Schwann cells; peptide concentration 1 ng/ml),percent of Schwann cells proliferating (Schwann cells; peptide concentration 10 ng/ml),percent of Schwann cells proliferating (Schwann cells; [4]),"Schwann cell proliferation, comparison in words (Schwann cells)",Marker Protein Expression: CEA (LIM 1215 cells),Marker Protein Expression: Integrin β4 (LIM 1215 cells),Marker Protein Expression: Villin (LIM 1215 cells),"proliferation of LIM 1215 cells (fold stimulation, FIG. 2) [1]",morphological (morphogenic) changes of LIM 1215 cells [2],rate of cleavage by endoproteinase Lys-C (endoproteinase Lys-C),expression of a number of other markers (LIM 1215 cells)
EGF-α/β: chimeric 52-residue peptide SHLVK-(A)-QNYVMAS; α177-221/β222-228 of extracellular NDF/heregulin EGF-like domain (SHLVKCAEKEKTFCVNGGECFMVKDLSNPSRYLCKCQPGFTGARCQNYVMAS),1%,10%,10%,17%,stimulated the proliferation of Schwann cells to a significantly greater extent than EGF-β/α,+,+,-,best results for cell proliferation; also recorded: displayed significant mitogenic activity,evidence of cell development and maturation is seen; also recorded: caused apparent morphogenic changes,,
EGF-α: comparison 52-residue peptide SHLVK-(A)-TENVPMK; EGF-like domain (residues 177-228) of NDF/heregulin α2 (SHLVKCAEKEKTFCVNGGECFMVKDLSNPSRYLCKCQPGFTGARCTENVPMK) [reference compound],,,,,,0,0,0,Some proliferation was obtained; also recorded: not as potent a mitogen,did not produce the same morphogenic changes,faster enzymatic cleavage,
EGF-β/α: comparison chimeric 52-residue peptide SHLVK-(B)-TENVPMK; β177-221/α222-228 of extracellular NDF/heregulin (SHLVKCAEKEKTFCVNGGECFMVKDLSNPSRYLCKCPNEFTGDRCTENVPMK) [reference compound],1%,2%,5%,10%,,0,0,0,No effect was seen; also recorded: did not show any detectable effect,appear unchanged; also recorded: did not produce any noticeable change,,
EGF-β: 52-residue peptide SHLVK-(B)-QNYVMAS; EGF-like domain (residues 177-228) of NDF/heregulin β1 (SHLVKCAEKEKTFCVNGGECFMVKDLSNPSRYLCKCPNEFTGDRCQNYVMAS),7.5%,13%,14%,19%,stimulated the proliferation of Schwann cells to a significantly greater extent than EGF-β/α,+,+,-,best results for cell proliferation; also recorded: stimulated the proliferation of LIM 1215 cells,"Evidence of cellular morphological changes is seen; also recorded: noticeable change in morphology, becoming enlarged and assuming a cobblestone-like appearance",more resistant to this enzyme and cleaved at a slower rate,unchanged

# Source: patent US5929032A, “Method for treating Schwann and colon cells in vitro” (Amgen Inc., priority 1996, dated 1999)
